Source: PubChem BioAssay (NCI)
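Each compound was tested at five concentrations against cells in 96-well plates for 48 hours. GI50 is the concentration that inhibits growth by half. TGI is the concentration that stops growth completely.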 Where a SMILES comes first, the peptide text is derived from it.

Assays:
Assay in all cases: inhibition of tumour cell growth, NCI panel, 48 h
MALME-3M melanoma = tested on: MALME-3M melanoma
ACHN renal = tested on: ACHN renal
OVCAR-4 ovarian = tested on: OVCAR-4 ovarian
MOLT-4 leukemia = tested on: MOLT-4 leukemia
IGROV1 ovarian = tested on: IGROV1 ovarian
SK-OV-3 ovarian = tested on: SK-OV-3 ovarian
SK-MEL-5 melanoma = tested on: SK-MEL-5 melanoma
BT-549 breast = tested on: BT-549 breast
PC-3 prostate = tested on: PC-3 prostate
HS 578T breast = tested on: HS 578T breast

Structure (SMILES) | TGI (MALME-3M melanoma) [µM] | TGI (ACHN renal) [µM] | TGI (OVCAR-4 ovarian) [µM] | TGI (MOLT-4 leukemia) [µM] | TGI (IGROV1 ovarian) [µM] | TGI (SK-OV-3 ovarian) [µM] | TGI (SK-MEL-5 melanoma) [µM] | TGI (BT-549 breast) [µM] | TGI (PC-3 prostate) [µM] | GI50 (BT-549 breast) [µM] | GI50 (MALME-3M melanoma) [µM] | GI50 (PC-3 prostate) [µM] | GI50 (ACHN renal) [µM] | GI50 (OVCAR-4 ovarian) [µM] | GI50 (IGROV1 ovarian) [µM] | GI50 (SK-OV-3 ovarian) [µM] | GI50 (HS 578T breast) [µM] | TGI (HS 578T breast) [µM] | GI50 (SK-MEL-5 melanoma) [µM] | GI50 (MOLT-4 leukemia) [µM]
CCOC(=N)CC(=O)Nc1cccc(Cl)c1 | > 100 | > 100 | > 100 | > 100 | > 100 | > 100 | > 100 |  |  |  |  |  |  |  |  |  |  |  |  | 
CNS(=O)(=O)NN(C)S(=O)(=O)c1ccc2ccccc2c1 | > 100 | > 100 | > 100 | > 100 | > 100 | > 100 | > 100 |  |  |  |  |  |  |  |  |  |  |  |  | 
COc1cccc2c1C(=O)c1c(O)c3c(c(O)c1C2=O)C[C@@](O)(C(=O)CO)CC3OC1CC(O)C(O)C(C)O1 (stereo not given in full) | 0.806 | 0.598 | 6.85 |  | 23.6 | 7.29 | 0.687 | 1.47 | 2.39 |  |  |  |  |  |  |  |  |  |  | 
Cc1cccc(N2C(=O)C(=O)C(c3nc4ccccc4s3)/C(=N/NC(=S)NN)C2=O)c1C (stereo not given) | > 100 | > 100 | > 100 | > 100 | > 100 | > 100 | > 100 |  |  |  |  |  |  |  |  |  |  |  |  | 
NCCOc1ccccc1/C=C1\c2ccccc2-c2ccc([N+](=O)[O-])cc21 | 2.91 | 2.69 | 3.27 |  | 2.68 | 3.13 | 3.22 | 2.84 | 2.96 | 1.5 | 1.5 | 1.52 | 1.38 | 1.79 | 1.35 | 1.7 | 1.72 | 3.79 | 1.8 | 
COc1ccc2c(c1)CC1c3c(ccc(OC)c3O)CC2N1C (stereo not given) | 29.4 | > 100 | > 100 | 73.8 | > 100 | > 100 | 32.7 |  |  |  |  |  |  |  |  |  |  |  |  | 
OCCNCCCOc1ccc2ncnc(Nc3ccc(Oc4cccc(C(F)(F)F)c4)c(Cl)c3)c2c1 | 3.24 | 2.28 |  |  | 2.14 |  |  | 4.25 | 3.21 | 1.82 | 1.66 | 1.66 | 1.09 |  | 0.584 |  |  |  |  | 
CCCCNC(=O)Oc1ccc(/C(=C(/C)Cc2ccc(OC)cc2)c2ccc(OCCN3CCCC3)cc2)cc1 | 3.28 | 3.32 | 4.26 | 7.72 | 4.52 | 20.4 | 3.17 | 2.98 |  | 1.52 | 1.7 |  | 1.79 | 1.83 | 2.11 | 6.14 | 2.11 | 4.81 | 1.66 | 1.98
COc1ccc2c(c1)[n+]([O-])c(-c1ccc(C)cc1)c(N)[n+]2[O-] | > 100 | > 100 | > 100 |  | > 100 | > 100 | > 100 |  |  |  |  |  |  |  |  |  |  |  |  | 
CC1(C)C(=O)/C=C\C(=O)C(C)(C)C(=O)/C=C\C(=O)C(C)(C)C(=O)/C=C\C(=O)C(C)(C)C(=O)/C=C\C1=O | 33.1 | > 63.2 | 53.1 | 26.7 | 56.5 | > 96.1 | 56.2 |  | > 100 |  |  |  |  |  |  |  |  | > 100 |  | 
Oc1ccc(CCNCc2cc3c(cc2Br)OCO3)cc1 | > 100 | > 100 |  | > 100 | > 100 | > 100 | > 100 | > 100 | > 100 |  |  |  |  |  |  |  |  | > 100 |  | 
O=[n+]1c2ccccc2n([O-])c2cc(Cl)ccc21 | 20.8 | 9.95 | 26.6 | 2.03 | 6.95 | 20.4 | 21.6 | 24.1 |  | 5.2 | 7.76 |  | 2.91 | 2.67 | 1.86 | 7.12 | 2.95 | 21.7 | 9.11 | 0.385
CCCCCCCCCCCCCCCC(=O)OCC1OC(OC)C2NP(=O)(N(CCCl)CCCl)OC1C2O (stereo not given) | 34.1 | 40.6 | 38 | 0.968 | > 54.9 | 56.1 | 38 | 5.96 | 18.9 |  |  |  |  |  |  |  |  |  |  | 
COc1ccc(-c2cc(-c3cc(Cl)cc(Br)c3O)[nH]c(=O)n2)cc1 | 42.3 | 27.7 | 26.5 | 35.3 | 52.4 | 38.8 |  |  |  |  |  |  |  |  |  |  |  |  |  | 
Cc1cc(N2CCCC2)nc(NCc2cc(Nc3ccnc4cc(Cl)ccc34)ccc2F)n1 |  | 3.06 |  |  |  | 3.89 | 2.2 | 3.3 | 2.58 | 1.54 |  | 1.19 | 1.53 |  |  | 2.04 | 1.51 | 3.91 | 1.01 | 
Cc1cc(C(=O)O)c(C)n1-c1cccc(C(=O)O)c1 | > 100 | > 100 | > 100 | > 100 | > 100 | > 100 | > 100 | > 100 | > 100 | > 100 | > 100 | > 100 | > 100 | > 100 | > 100 | > 100 |  |  | > 100 | > 100
CCOC(=O)C1=C(C)N(NC(N)=O)C(C)(O)C12CCOC2=O (stereo not given) | > 100 | > 100 | > 100 | > 100 | > 100 | > 100 | > 100 |  |  |  |  |  |  |  |  |  |  |  |  | 
O=[N+]([O-])c1ccc(/C=C/c2csnn2)cc1 | > 100 | > 100 | > 100 | > 100 | > 100 | > 100 | > 100 |  |  |  |  |  |  |  |  |  |  |  |  | 
Cc1ccc(NC(=S)SCCC(=O)O)cc1 |  | > 100 | > 100 | > 100 |  |  |  |  |  |  |  |  |  |  |  |  |  |  |  | 
CCC(C)C1NC(=O)C2CCCN2C(=O)CNC(=O)C(C)NC(=O)C(Cc2ccccc2)NC(=O)C(C(C)C)NC1=O (stereo not given) (cyclo(GPIVFA); configuration not given here) | > 100 | > 100 | > 100 | > 100 | > 100 | > 100 | > 100 |  |  |  |  |  |  |  |  |  |  |  |  | 
Clc1ccc2nc(-c3ccccc3)nc(Cl)c2c1 | 95.1 | 76.9 |  | > 100 | > 100 | 36.8 | > 100 |  |  |  |  |  |  |  |  |  |  |  |  | 
CC1=C(Cl)C=CP(=O)(OC(C)C)C1 (stereo not given) | > 100 | > 100 | > 100 | > 100 | > 100 |  | > 100 |  |  |  |  |  |  |  |  |  |  |  |  | 
